Laboratory results as given in patent US11993640B2, “Treating inflammatory lung disease” (United States Government as represented by the Department …, priority 2019, dated 2024).
Non-standard residues stand in square brackets, D forms with d. Residues, ends and D or L forms follow the SMILES beside them. *: point of attachment. Phe(4-Cl) = N[C@@H](Cc1ccc(Cl)cc1)C(=O)O; hArg = N=C(N)NCCCC[C@H](N)C(=O)O; 12Ado = NCCCCCCCCCCCC(=O)O; Nle = CCCC[C@H](N)C(=O)O; Orn = NCCC[C@H](N)C(=O)O; Abu = CC[C@H](N)C(=O)O; PhAc = O=C(Cc1ccccc1)*

Tests used:
Format in all cases: cell-based, human
Details in all cases: 5 μM, 72 h; relative to MIA602 = 1; Table 3A
[1] = system: NCI-N87 cells; test: In vitro cell viability (CellTiter 96), stomach cancer N87
Method: (§1) The inhibitory effects of the various synthesized GHRH antagonists were tested in cell proliferation assays in various human cancer cell lines including stomach cancer (KATOIII, N87), colon cancer (HT-29), urothelial cancer (J82, RT4), pancreatic cancer (PANC-1, CFPAC-1), prostatic cancer (PC3), breast cancer (MX-1, HCC1806), ovarian cancer (SK-OV-3, OVCAR-3) and lung cancer (HCC827, H460).
(§2) Cell culture. Human cancer cell lines including pancreatic (PANC-1 and CFPAC-1), lung (HCC827 and H460), stomach (NCI-N87 and KATOIII), urothelial (J82, RT4), prostatic (PC3), breast (MX-1 and HCC 1806), colorectal (HT-29), and ovarian (SK-OV-3 and OVCAR-3) were obtained from the American Type Culture Collection (ATCC) and cultured at 37° C. in a humidified 95% air/5% CO2 atmosphere in the medium recommended by ATCC.
(§3) In vitro cell viability. Cell viability was analyzed as follows: cancer cells including pancreatic (PANC-1 and CFPAC-1), lung (HCC827 and H460), stomach (NCI-N87 and KATOIII), urothelial (J82, RT4), prostatic (PC3) and breast (MX-1 and HCC 1806), colorectal (HT-29) and ovarian (SK-OV-3 and OVCAR-3) were grown on 96 well plates to ˜60% confluence, the cells were starved for 24 h in culture medium containing 0.5% FBS. Cells were then treated with GHRH antagonists MIA602 AVR compounds at concentrations of 1, 2.5 or 5 μM, or vehicle (0.1% DMSO) in quintuplicates for 72 hours. The medium was replaced every 48 hours. Cell viability was measured using CellTiter 96 aqueous one solution kit (Promega). Inhibitory effects of tested AVR compounds in comparison to that of MIA602 are presented as inhibitory potency.
(§4) Inhibitory effects of selected AVR compounds in comparison to that of MIA602 are presented as inhibitory potency (e.g., percentage of inhibition). […] The cell lines tested including lung cancer HCC827 (FIG. 2A), pancreatic cancer CFPAC-1 (FIG. 2B), stomach cancer N87 (FIG. 2C), colon cancer HT-29 (FIG. 2D), breast cancers MX-1 and HCC1806 (FIGS. 2E, F). Based on the results of cell proliferation assay after cancer cells were treated with antagonist at concentration of 5 μM for 72H, the relative inhibitory potency of AVR antagonists in comparison to MIA-602 is summarized in Table 3 A and B. Over 60 AVR compounds were tested in 12 cancer cell lines.
(§5) Based on the results of cell proliferation assay after cancer cells were treated with antagonist at concentration of 5 µM for 72H, * at concentration of 2 µM for 72 H.

[2] = system: KATOIII cells; test: In vitro cell viability, stomach cancer KATOIII
Outline: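 Cells grown to ~60% confluence, starved 24 h in 0.5% FBS medium, then exposed to antagonists at 1, 2.5 or 5 μM or 0.1% DMSO vehicle for 72 h, in quintuplicate with medium renewed every 48 h. Viability by CellTiter 96 AQueous One; reported as inhibitory potency relative to MIA602.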

[3] = system: HCC827 cells; test: In vitro cell viability, lung cancer HCC827
Method: as §1, §2, §3, §4, §5

[4] = system: CFPAC-1 cells; test: In vitro cell viability, pancreatic cancer CFPAC-1
Method: as §1, §2, §3, §4, §5

[5] = system: PANC-1 cells; test: In vitro cell viability, pancreatic cancer PANC-1
Method: as §1, §2, §3, §4

[6] = system: J82 cells; test: In vitro cell viability, urothelial cancer J82
Method: as §1, §2, §3, §4

[7] = system: RT4 cells; test: In vitro cell viability, urothelial cancer RT4
Method: as §1, §2, §3
(§6) Inhibitory effects of selected AVR compounds in comparison to that of MIA602 are presented as inhibitory potency (e.g., percentage of inhibition). […] The cell lines tested including lung cancer HCC827 (FIG. 2A), pancreatic cancer CFPAC-1 (FIG. 2B), stomach cancer N87 (FIG. 2C), colon cancer HT-29 (FIG. 2D), breast cancers MX-1 and HCC1806 (FIGS. 2E, F). […]

[8] = system: PC3 cells; test: In vitro cell viability, prostatic cancer PC3
Method: as §1, §2, §3, §6

[9] = system: HCC1806 cells; test: In vitro cell viability, breast cancer HCC1806
Method: as §1, §2, §3, §4, §5

[10] = system: MX-1 cells; test: In vitro cell viability, breast cancer MX-1
Method: as §1, §2, §3, §4, §5

Compound	Relative inhibitory potency, Stomach N87 [1]	Relative inhibitory potency, Stomach KATOIII [2]	Relative inhibitory potency, Lung HCC827 [3]	Relative inhibitory potency, Pancreatic CFPAC-1 [4]	Relative inhibitory potency, Pancreatic Panc-1 [5]	Relative inhibitory potency, Urothelial J82 [6]	Relative inhibitory potency, Urothelial RT4 [7]	Relative inhibitory potency, Prostatic PC3 [8]	Relative inhibitory potency, Breast HCC1806 [9]	Relative inhibitory potency, Breast MX-1 [10]
CCCC[C@H](NC(=O)[C@@H](NC(=O)[C@H](CC(=O)O)NC(=O)[C@H](CCC(N)=O)NC(=O)[C@H](CC(C)C)NC(=O)[C@H](CC(C)C)NC(=O)[C@H](CCCN)NC(=O)[C@H](Cc1c[nH]cn1)NC(=O)[C@H](C)NC(=O)[C@H](CO)NC(=O)[C@H](CC(C)C)NC(=O)[C@H](CCC(N)=O)NC(=O)[C@H](CC)NC(=O)[C@H](CC(C)C)NC(=O)[C@@H](NC(=O)[C@H](CCCCN)NC(=O)[C@H](CCCNC(=N)N)NC(=O)[C@H](Cc1ccc(OC)cc1)NC(=O)[C@H](CCCNC(=N)N)NC(=O)[C@H](C)NC(=O)[C@@H](NC(=O)[C@H](Cc1ccc(Cl)cc1)NC(=O)[C@@H](NC(=O)[C@H](C)NC(=O)[C@H](CC(=O)O)NC(=O)[C@@H](CCCNC(=N)N)NC(=O)[C@H](Cc1ccc(O)cc1)NC(=O)CCCCCCCCCCCNC(=O)[C@H](N)Cc1ccccc1)[C@@H](C)CC)[C@@H](C)O)C(C)C)[C@@H](C)CC)C(=O)N[C@H](CCCNC(=N)N)C(=O)N[C@@H](CCCCNC(=N)N)C(N)=O [AVR-120, D-Phe-Ada-Tyr-DArg-Asp-Ala-Ile-Cpa-Thr-Ala-Arg-Tyr(Me)-Arg-Lys-Val-Leu-Abu-Gln-Leu-Ser-Ala-His-Orn-Leu-Leu-Gln-Asp-Ile-Nle-DArg-Har-NH2] (H-[dF][12Ado]Y[dR]DAI[Phe(4-Cl)]TARY(Me)RKVL[Abu]QLSAH[Orn]LLQDI[Nle][dR][hArg]-NH2; N-terminus assumed)	2.339	1.271	1.423	1.617	1.306	4.841	1.611			
CCCC[C@H](NC(=O)[C@@H](NC(=O)[C@H](CC(=O)O)NC(=O)[C@H](CCC(N)=O)NC(=O)[C@H](CC(C)C)NC(=O)[C@H](CC(C)C)NC(=O)[C@H](CCCN)NC(=O)[C@H](Cc1c[nH]cn1)NC(=O)[C@H](C)NC(=O)[C@H](CO)NC(=O)[C@H](CC(C)C)NC(=O)[C@H](CCC(N)=O)NC(=O)[C@H](CC)NC(=O)[C@H](CC(C)C)NC(=O)[C@@H](NC(=O)[C@H](CCCCN)NC(=O)[C@H](CCCNC(=N)N)NC(=O)[C@H](Cc1ccc(OC)cc1)NC(=O)[C@H](CCCNC(=N)N)NC(=O)[C@H](C)NC(=O)[C@@H](NC(=O)[C@H](Cc1ccc(Cl)cc1)NC(=O)[C@@H](NC(=O)[C@H](C)NC(=O)[C@H](CC(=O)O)NC(=O)[C@@H](CCCNC(=N)N)NC(=O)[C@H](Cc1ccc(O)cc1)NC(=O)CCCCCCCCCCCNC(=O)Cc1ccccc1)[C@@H](C)CC)[C@@H](C)O)C(C)C)[C@@H](C)CC)C(=O)N[C@H](CCCNC(=N)N)C(=O)N[C@@H](CCCCNC(=N)N)C(N)=O [AVR-104, PhAC-Ada-Tyr-DArg-Asp-Ala-Ile-Cpa-Thr-Ala-Arg-Tyr(Me)-Arg-Lys-Val-Leu-Abu-Gln-Leu-Ser-Ala-His-Orn-Leu-Leu-Gln-Asp-Ile-Nle-DArg-Har-NH2] ({PhAc-12Ado}-Y[dR]DAI[Phe(4-Cl)]TARY(Me)RKVL[Abu]QLSAH[Orn]LLQDI[Nle][dR][hArg]-NH2)	2.291	1.321	1.525	1.502	1.114	3.377	1.697	1.440	1.220	1.310
CCCC[C@H](NC(=O)[C@@H](NC(=O)[C@H](CC(=O)O)NC(=O)[C@H](CCC(N)=O)NC(=O)[C@H](CC(C)C)NC(=O)[C@H](CC(C)C)NC(=O)[C@H](CCCCN)NC(=O)[C@H](CCCNC(=N)N)NC(=O)[C@H](C)NC(=O)[C@H](CO)NC(=O)[C@H](CC(C)C)NC(=O)[C@H](CCC(N)=O)NC(=O)[C@H](CC)NC(=O)[C@H](CC(C)C)NC(=O)[C@@H](NC(=O)[C@H](CCCCN)NC(=O)[C@H](CCCNC(=N)N)NC(=O)[C@H](Cc1ccc(O)cc1)NC(=O)[C@H](CCCNC(=N)N)NC(=O)[C@H](C)NC(=O)[C@@H](NC(=O)[C@H](Cc1ccc(Cl)cc1)NC(=O)[C@@H](NC(=O)[C@H](C)NC(=O)[C@H](CC(=O)O)NC(=O)[C@@H](CCCNC(=N)N)NC(=O)[C@H](Cc1ccc(O)cc1)NC(=O)CCCCCCCCCCCNC(=O)Cc1ccccc1)[C@@H](C)CC)[C@@H](C)O)C(C)C)[C@@H](C)CC)C(=O)N[C@H](CCCNC(=N)N)C(=O)N[C@@H](CCCCNC(=N)N)C(N)=O [AVR-107, PhAC-Ada-Tyr-DArg-Asp-Ala-Ile-Cpa-Thr-Ala-Arg-Tyr-Arg-Lys-Val-Leu-Abu-Gln-Leu-Ser-Ala-Arg-Lys-Leu-Leu-Gln-Asp-Ile-Nle-DArg-Har-NH2] ({PhAc-12Ado}-Y[dR]DAI[Phe(4-Cl)]TARYRKVL[Abu]QLSARKLLQDI[Nle][dR][hArg]-NH2)		1.295		1.080	1.160			0.800	0.950	1.010
